Data: publication PMC11054487, “Species-Specific Unbound Fraction Differences in Highly Bound PFAS: A Comparative Study across Human, Rat, and Mouse Plasma and Albumin” (Toxics, 2024)

Assays:
[1] = biological target: T1, human serum albumin (HSA) (Homo sapiens, UniProt P02768); assay: Presaturation equilibrium dialysis, fraction unbound in human serum albumin solution; format: in vitro ADME; details: 4% human serum albumin in PBS, value (CV)
T1 construct: purchased Sigma-Aldrich
Description: (§1) Each PFAS:matrix combination was assessed in quadruplicate.
(§2) The injection volume for each sample was 5 µL.

[2] = biological target: rat serum albumin (RSA) (Rattus norvegicus, UniProt P02770); assay: Presaturation equilibrium dialysis, fraction unbound in rat serum albumin solution; details: for fraction unbound at 18 h, 5 µM: rat
rat serum albumin (RSA), sequence (P02770 25-608): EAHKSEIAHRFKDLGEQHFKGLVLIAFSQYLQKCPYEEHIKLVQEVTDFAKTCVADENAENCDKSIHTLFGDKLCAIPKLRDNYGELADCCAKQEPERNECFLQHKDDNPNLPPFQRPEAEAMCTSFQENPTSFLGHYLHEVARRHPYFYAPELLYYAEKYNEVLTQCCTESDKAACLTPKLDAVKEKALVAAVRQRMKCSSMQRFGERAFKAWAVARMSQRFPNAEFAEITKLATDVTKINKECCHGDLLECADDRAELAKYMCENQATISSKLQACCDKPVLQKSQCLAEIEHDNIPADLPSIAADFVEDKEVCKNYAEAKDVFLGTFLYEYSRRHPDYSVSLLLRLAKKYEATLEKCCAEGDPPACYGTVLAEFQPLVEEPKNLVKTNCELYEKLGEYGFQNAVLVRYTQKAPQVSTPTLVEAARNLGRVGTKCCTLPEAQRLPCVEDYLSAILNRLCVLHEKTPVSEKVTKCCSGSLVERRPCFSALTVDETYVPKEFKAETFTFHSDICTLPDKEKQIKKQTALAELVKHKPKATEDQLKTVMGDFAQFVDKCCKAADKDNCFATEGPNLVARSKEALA
Description: (§3) The equilibrium dialysis device (EQD) HTD96 (Gales Ferry, CT, USA) was assembled according to manufacturer instructions. DPBS buffer solutions were prepared by adding PFAS with a concentration of either approximately five-fold of the estimated fu values based on initial available data or assumed to be 0.001 if no data was available. The dialysis apparatus and membranes assembled were pre-saturated (250 µL) three times in total with PFAS spiked DPBS buffer solution; twice for 1 h followed by a final 18-h pre-saturation. This same solution was used on the receiver side of the EQD. […] This 4% albumin was used in the albumin binding study to recapitulate plasma concentration, as human albumin concentration in plasma is 3.5–4.5 g/dL (530–680 µM). The matrix was diluted five-fold using DPBS for PFAS that had preliminary fu values lower than 0.01. Dimethylsulfoxide (DMSO) stock solutions of test PFAS were prepared at 500 μM and added to species-specific plasma or 4% albumin to a final concentration of 5 μM with 1% DMSO. Next, 150 μL of PFAS spiked DPBS was added to the receiver side of the membrane and 150 μL of compound spiked matrix was added to the donor side. […] Each PFAS:matrix combination was assessed in quadruplicate. For sample collection, 15 μL of buffer and 45 μL of matrix were sampled from the dialysis device into a 96-deep well plate and matrix-matched with either blank buffer or matrix. The samples were then quenched with 200 μL of cold acetonitrile containing internal standard (tolbutamide 30 nM and carbamazepine 12 nM) to precipitate proteins. Next, the plates were sealed and placed on a vortex mixer for 1 min, and then centrifuged (Beckman Coulter, Fullerton, CA, USA) at 3000 rpm for 5 min at room temperature. Lastly, the supernatant was transferred to a new 96-well plate, fully dried down under nitrogen gas, reconstituted with 200 µL of 50/50 (v/v) HPLC grade water/acetonitrile, and vortexed for 1 min prior to LC-MS/MS analysis.
(§4) LC-MS/MS analyses were performed on a SCIEX Triple Quad 5500 mass spectrometer (SCIEX, Concord, ON, Canada) equipped with Turbo Ion Spray interface. […] All instruments were controlled and synchronized by SCIEX Analyst software (version 1.6.3). Mobile phases compositions were 0.1% formic acid in water (mobile phase A) and 0.1% formic acid in acetonitrile (mobile phase B). […] The column was equilibrated at 5% B for 0.5 min before injecting samples. The total run time for each injection was 6 min. The chromatographic separation was conducted on a Phenomenex Kinetex C18 100Å 30 × 2.1 mm column (Torrance, CA, USA) with a flow rate of 0.5 mL/min. The injection volume for each sample was 5 µL. Multiple-reaction-monitoring (MRM) mode using specific precursor/product ion transitions was used for quantification. Data processing was performed using SCIEX Analyst software (version 1.6.3).
(§5) The calculations for fu are shown in Equations (1) and (2), where D is the dilution factor and fu,d is the diluted fu shown below. All calculations are based on area ratios (analyte peak area/IS peak area), and MS responses used for calculations were all in linear ranges. […] (1) Diluted fud=Receiver Area Ratio/Donor Area Ratio (2) Undiluted fu=1/D/1/fu,d−1+1/D
(§6) Albumin concentrations for rodents have been reported in the literature as rat: 3.0 g/dL; CD-1 mice: 2.7 g/dL; C57BL/6 mice: 2.9 g/dL [53].

[3] = system: rat plasma; set-up: method as in PMID 12499116; details: ultrafiltration method; cited from earlier work
[4] = system: rat (Wistar-Han) plasma; assay: Presaturation equilibrium dialysis, fraction unbound in rat plasma; format: in vitro ADME; set-up: fraction unbound at 18 h: dose or concentration left out as unconfirmed; details: 5 μM PFAS, 18 h, 37 °C, value (CV)
Description: as §1, §2

[5] = biological target: mouse serum albumin (MSA) (Mus musculus, UniProt P07724); assay: Presaturation equilibrium dialysis, fraction unbound in mouse serum albumin solution; details: for fraction unbound at 18 h, 5 µM: mouse
mouse serum albumin (MSA), sequence (P07724 25-608): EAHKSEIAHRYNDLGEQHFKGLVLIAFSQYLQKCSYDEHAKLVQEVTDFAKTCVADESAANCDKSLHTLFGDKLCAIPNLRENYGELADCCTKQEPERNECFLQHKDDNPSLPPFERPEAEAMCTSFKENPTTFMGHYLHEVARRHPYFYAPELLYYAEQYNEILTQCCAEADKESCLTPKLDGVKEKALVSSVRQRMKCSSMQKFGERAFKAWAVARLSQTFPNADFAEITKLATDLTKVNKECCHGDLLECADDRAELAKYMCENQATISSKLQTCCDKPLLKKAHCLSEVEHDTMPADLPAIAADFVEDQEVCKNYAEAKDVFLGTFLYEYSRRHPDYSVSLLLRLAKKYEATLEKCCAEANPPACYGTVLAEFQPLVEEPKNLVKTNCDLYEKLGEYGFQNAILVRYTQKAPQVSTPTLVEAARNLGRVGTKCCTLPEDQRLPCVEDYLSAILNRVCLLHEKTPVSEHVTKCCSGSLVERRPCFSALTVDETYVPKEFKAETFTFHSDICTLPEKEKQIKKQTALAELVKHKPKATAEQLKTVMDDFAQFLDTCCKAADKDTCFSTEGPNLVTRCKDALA
Description: as §3, §4, §5, §6

[6] = system: mouse (CD-1) plasma; assay: Presaturation equilibrium dialysis, fraction unbound in CD-1 mouse plasma; format: in vitro ADME; set-up: fraction unbound at 18 h: dose or concentration left out as unconfirmed; details: 5 μM PFAS, 18 h, 37 °C, value (CV)
Description: as §1, §2

[7] = system: human plasma; assay: Presaturation equilibrium dialysis, fraction unbound in human plasma; format: in vitro ADME; set-up: fraction unbound at 18 h: dose or concentration left out as unconfirmed; details: 5 μM PFAS, 18 h, 37 °C, value (CV)
Description: as §1, §2

[8] = system: mouse (C57BL/6) plasma; assay: Presaturation equilibrium dialysis, fraction unbound in C57BL/6 mouse plasma; format: in vitro ADME; set-up: fraction unbound at 18 h: dose or concentration left out as unconfirmed; details: 5 μM PFAS, 18 h, 37 °C, value (CV)
Description: as §1, §2

[9] = Presaturation equilibrium dialysis, fraction unbound in rat plasma; format: in vitro ADME; set-up: fraction unbound at 18 h: dose or concentration left out as unconfirmed; details: Wistar-Han rat plasma, 37 °C, value (CV), read-out: Fraction Unbound (fu) and Coefficient of Variance (CV), Rat Plasma
Description: as §1, §2

[10] = Presaturation equilibrium dialysis, fraction unbound in CD-1 mouse plasma; format: in vitro ADME; set-up: fraction unbound at 18 h: dose or concentration left out as unconfirmed; details: 37 °C, value (CV), read-out: Fraction Unbound (fu) and Coefficient of Variance (CV), CD-1 Plasma
Description: as §1, §2

[11] = Presaturation equilibrium dialysis, fraction unbound in human plasma; format: in vitro ADME; set-up: fraction unbound at 18 h: dose or concentration left out as unconfirmed; details: human, 37 °C, value (CV), read-out: Fraction Unbound (fu) and Coefficient of Variance (CV), Human Plasma
Description: as §1, §2

[12] = Presaturation equilibrium dialysis, fraction unbound in C57BL/6 mouse plasma; format: in vitro ADME; set-up: fraction unbound at 18 h: dose or concentration left out as unconfirmed; details: 37 °C, value (CV), read-out: Fraction Unbound (fu) and Coefficient of Variance (CV), C57BL/6 Plasma
Description: as §1, §2

[13] = humans; cited from earlier work
[14] = 3% rat serum albumin, value (%CV)
[15] = 4% rat serum albumin in PBS, 5 μM PFAS, value (CV)
[16] = 3% mouse serum albumin, value (%CV)
[17] = 4% mouse serum albumin in PBS, 5 μM PFAS, value (CV)
[18] = isolated protein, Fraction unbound (fu) and %CV, RSA 3%, 3% rat serum albumin, value (%CV)
[19] = isolated protein, Fraction unbound (fu) and %CV, MSA 3%, 3% mouse serum albumin, value (%CV)
[20] = 4% rat serum albumin (RSA) solution, Fraction Unbound (fu) and Coefficient of Variance (CV), RSA, 4% rat serum albumin in PBS, 5 μM PFAS, value (CV)
[21] = 4% mouse serum albumin (MSA) solution, Fraction Unbound (fu) and Coefficient of Variance (CV), MSA, 4% mouse serum albumin in PBS, 5 μM PFAS, value (CV)

T1 sequence (P02768 25-609): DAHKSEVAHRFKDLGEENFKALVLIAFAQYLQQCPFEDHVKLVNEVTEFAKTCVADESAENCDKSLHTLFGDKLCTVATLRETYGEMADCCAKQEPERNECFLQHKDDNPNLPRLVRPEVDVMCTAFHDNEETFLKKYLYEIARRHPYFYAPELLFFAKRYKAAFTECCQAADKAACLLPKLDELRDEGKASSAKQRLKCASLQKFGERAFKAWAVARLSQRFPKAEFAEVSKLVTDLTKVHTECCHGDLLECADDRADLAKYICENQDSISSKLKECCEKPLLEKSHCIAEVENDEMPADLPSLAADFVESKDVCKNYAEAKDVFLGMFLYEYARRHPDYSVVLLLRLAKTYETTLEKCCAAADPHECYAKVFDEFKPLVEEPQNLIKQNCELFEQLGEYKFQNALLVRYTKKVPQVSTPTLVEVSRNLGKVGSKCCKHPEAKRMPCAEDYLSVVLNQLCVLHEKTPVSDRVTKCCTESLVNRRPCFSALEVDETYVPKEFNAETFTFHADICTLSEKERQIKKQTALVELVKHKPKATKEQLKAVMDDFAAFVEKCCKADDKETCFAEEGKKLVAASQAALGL

O=C(O)C(F)(F)C(F)(F)C(F)(F)C(F)(F)C(F)(F)C(F)(F)C(F)(F)C(F)(F)C(F)(F)F [PFDA, perfluorodecanoic acid]
Fraction Unbound (fu) and Coefficient of Variance (CV), HSA ([1]; 5 μM PFAS): 0.000584(8%) | Fraction unbound (fu) and %CV, RSA 3% [2, 14]: 0.000494 (19%) | Fraction Unbound (fu) and Coefficient of Variance (CV), RSA [2, 15]: 0.000608(19%) | bound [3]: greater than 98% | Fraction Unbound (fu) and Coefficient of Variance (CV), Rat Plasma [4]: 0.001(9%) | Fraction unbound (fu) and %CV, MSA 3% [5, 16]: 0.000839 (26%) | Fraction Unbound (fu) and Coefficient of Variance (CV), MSA [5, 17]: 0.00102(26%) | Fraction Unbound (fu) and Coefficient of Variance (CV), CD-1 Plasma [6]: 0.0015(4%) | Fraction Unbound (fu) and Coefficient of Variance (CV), Human Plasma [7]: 0.000618(9%) | Fraction Unbound (fu) and Coefficient of Variance (CV), C57BL/6 Plasma [8]: 0.00127(9%)

O=C(O)C(F)(F)C(F)(F)C(F)(F)C(F)(F)C(F)(F)C(F)(F)F [PFHpA, perfluoroheptanoic acid]
fraction unbound at 18 h, 5 µM ([2]; isolated protein, Fraction Unbound (fu) and Coefficient of Variance (CV), RSA, 4% rat serum albumin in PBS, 5 μM PFAS, value (CV)): 0.00313 | fraction unbound at 18 h, 5 µM [2, 18]: 0.00257 | bound [3]: greater than 98% | fraction unbound at 18 h [9]: 0.00454 | fraction unbound at 18 h, 5 µM ([5]; isolated protein, Fraction Unbound (fu) and Coefficient of Variance (CV), MSA, 4% mouse serum albumin in PBS, 5 μM PFAS, value (CV)): 0.0118 | fraction unbound at 18 h, 5 µM [5, 19]: 0.00954 | fraction unbound at 18 h [10]: 0.0331 | fraction unbound at 18 h ([11]; plasma): 0.00445 | fraction unbound at 18 h [12]: 0.0323

O=C(O)C(F)(F)C(F)(F)C(F)(F)C(F)(F)C(F)(F)C(F)(F)C(F)(F)C(F)(F)F [PFNA, perfluorononanoic acid]
Fraction unbound (fu) and %CV, RSA 3% [2, 14]: 0.00217 (2%) | Fraction Unbound (fu) and Coefficient of Variance (CV), RSA [2, 15]: 0.00271(2%) | bound [3]: greater than 98% | Fraction Unbound (fu) and Coefficient of Variance (CV), Rat Plasma [4]: 0.0021(6%) | Fraction unbound (fu) and %CV, MSA 3% [5, 16]: 0.00292 (6%) | Fraction Unbound (fu) and Coefficient of Variance (CV), MSA [5, 17]: 0.00364(6%) | Fraction Unbound (fu) and Coefficient of Variance (CV), CD-1 Plasma [6]: 0.00455(6%) | Fraction Unbound (fu) and Coefficient of Variance (CV), Human Plasma [7]: 0.00187(3%) | Fraction Unbound (fu) and Coefficient of Variance (CV), C57BL/6 Plasma [8]: 0.00438(22%)

O=C(O)C(F)(F)C(F)(F)C(F)(F)C(F)(F)C(F)(F)C(F)(F)C(F)(F)F [PFOA, perfluorooctanoic acid]
fraction unbound at 18 h, 5 µM ([1]; 4% human serum albumin (HSA) solution, 5 μM PFAS, read-out: Fraction Unbound (fu) and Coefficient of Variance (CV), HSA): 0.00285 | fraction unbound at 18 h, 5 µM [2, 20]: 0.00196 | fraction unbound at 18 h, 5 µM [2, 18]: 0.00157 | bound [3]: greater than 98% | fraction unbound at 18 h, 5 µM ([9]; 5 μM PFAS): 0.00298 | fraction unbound at 18 h, 5 µM [5, 21]: 0.00513 | fraction unbound at 18 h, 5 µM [5, 19]: 0.00411 | fraction unbound at 18 h, 5 µM ([10]; 5 μM PFAS): 0.0152 | t1/2 [13]: 2.3–5.4 years | fraction unbound at 18 h, 5 µM ([11]; 5 μM PFAS): 0.0025 | fraction unbound at 18 h, 5 µM ([12]; 5 μM PFAS): 0.0142

NS(=O)(=O)C(F)(F)C(F)(F)C(F)(F)C(F)(F)C(F)(F)C(F)(F)C(F)(F)C(F)(F)F [PFOSA, perfluorooctanesulfonamide]
fraction unbound at 18 h ([1]; 4% human serum albumin (HSA) solution, read-out: Fraction Unbound (fu) and Coefficient of Variance (CV), HSA): 0.00152 | fraction unbound at 18 h, 5 µM [2, 20]: 0.00118 | fraction unbound at 18 h, 5 µM [2, 18]: 0.000952 | fraction unbound at 18 h [9]: 0.00197 | fraction unbound at 18 h, 5 µM [5, 21]: 0.00127 | fraction unbound at 18 h, 5 µM [5, 19]: 0.00102 | fraction unbound at 18 h [10]: 0.00326 | fraction unbound at 18 h [11]: 0.0019 | fraction unbound at 18 h [12]: 0.0023
